Reference: patent publication US20080103185A1, “Process for Producing Thiazolidinedione Compound and Production Intermediate Thereof” (DAIICHI SANKYO COMPANY, LIMITED, priority 2005, published 2008)

Assay: Test for quality and stability over time of compound (III^1) crystals, HPLC peak area content
Assay type: physicochemical
Conditions: HPLC area %
Method: Test for quality and stability over time of tert-butyl N-{2-{4-[(2,4-dioxothiazolidin-5-yl)methyl]phenoxyacetylamino}-5-methoxyphenyl}-N-methylcarbamate (compound (III^1))
Quality of four samples (the crystals obtained in Example 3, the crystals obtained in Example 3 and stored at 40° C. for 40 days, the purified crystals obtained in Example 4 and the purified crystals obtained in Example 4 and stored at 40° C. for 42 days) was analyzed. Quality was analyzed by the following method.
A solution of about 10 mg/L of the compound (III^1) in acetonitrile-water (4:1) was prepared.
About 20 μL of the sample solution was analyzed by high-performance liquid chromatography under the following conditions.
Column: L-column ODS 4.6×250 mm (Chemicals-Evaluation and Research Institute, Japan)
Mobile phase: 0.02 M ammonium acetate solution/acetonitrile mixture (55:45)
Detection wavelength: 220 nm
Measurement temperature: 40° C.
Peak areas were determined from chromatograms, respectively, to provide a content of each component (%) 100× (peak area of each component)/(total peak area of all components).

SMILES | content of component at relative retention time 3.01 (crystals stored at 40° C. for 40 days, immediately after drying 0.05) [%] | content of component at relative retention time 0.46 (crystals stored at 40° C. for 40 days, immediately after drying 0.16) [%] | content of component at relative retention time 0.43 (crystals stored at 40° C. for 40 days, immediately after drying 0.39) [%] | Total of other components (crystals stored at 40° C. for 40 days, immediately after drying 0.54) [%] | content of component at relative retention time 0.21 (crystals stored at 40° C. for 40 days, immediately after drying 0.60) [%] | Total of impurities (crystals stored at 40° C. for 40 days, immediately after drying 1.74) [%] | content of test substance (relative retention time 1.00) (crystals stored at 40° C. for 40 days, immediately after drying 98.26) [%] | content of component at relative retention time 3.01 (purified crystals stored at 40° C. for 42 days, immediately after drying 0.04) [%] | content of component at relative retention time 0.43 (purified crystals stored at 40° C. for 42 days, immediately after drying 0.07) [%] | content of component at relative retention time 0.46 (purified crystals stored at 40° C. for 42 days, immediately after drying 0.08) [%] | content of component at relative retention time 0.21 (purified crystals stored at 40° C. for 42 days, immediately after drying 0.19) [%] | Total of other components (purified crystals stored at 40° C. for 42 days, immediately after drying 0.25) [%] | Total of impurities (purified crystals stored at 40° C. for 42 days, immediately after drying 0.63) [%] | content of test substance (relative retention time 1.00) (purified crystals stored at 40° C. for 42 days, immediately after drying 99.37) [%]
COc1ccc(NC(=O)COc2ccc(CC3SC(=O)NC3=O)cc2)c(N(C)C(=O)OC(C)(C)C)c1 (centres unmarked) [Crystals of Example 3, tert-Butyl N-{2-{4-[(2,4-dioxothiazolidin-5-yl)methyl]phenoxyacetylamino}-5-methoxyphenyl}-N-methylcarbamate] | 0.05 | 0.48 | 0.32 | 0.56 | 0.63 | 2.04 | 97.96 | – | – | – | – | – | – | –
COc1ccc(NC(=O)COc2ccc(CC3SC(=O)NC3=O)cc2)c(N(C)C(=O)OC(C)(C)C)c1 (centres unmarked) [Purified crystals of Example 4, tert-Butyl N-{2-{4-[(2,4-dioxothiazolidin-5-yl)methyl]phenoxyacetylamino}-5-methoxyphenyl}-N-methylcarbamate] | – | – | – | – | – | – | – | 0.03 | 0.07 | 0.09 | 0.26 | 0.20 | 0.65 | 99.35
